Measured values taken from patent publication US9592214B2, “Compounds for the treatment of autism in a baby child” (INSERM (INSTITUT NATIONAL DE LA SANTE ET DE LA RECHERCHE …, priority 2010, dated 2017).
Values joined by “and” are separate entries in the source; they are usually repeats but may differ in a detail not shown here. Equal values may be shown once. “Also recorded” adds a separate entry of the source.

Columns and labels:
[1] = test system: hippocampal CA3 pyramidal neurons; assay: Whole-cell voltage clamp recordings of sEPSCs in offspring after maternal pretreatment; assay type: in vivo, rat; conditions: P15 rats, maternal SSR pretreatment (1 mg/kg in drinking water); result in words
Description: Standard whole-cell recordings were performed in coronal neocortical rat or mouse brain slices at room temperature (20-22° C.) from the soma of hippocampal CA3 neurons using an EPC-10 (HEKA Elektronik, Germany) amplifier and filtered at 3-10 kHz. The internal solution contained (in mM): 130 K-gluconate, 10 Na-gluconate, 4 NaCl, 4 MgATP, 4 phosphocreatine, 10 HEPES, and 0.3 GTP (pH 7.3 with KOH). Biocytin (final concentration 0.3-0.5%) was added to the pipette solution to label the neurons from which recordings were obtained. Neurons were visualized by using infrared DIC video microscopy. Spontaneous postsynaptic currents were recorded for […] at the reversal potentials for […] currents (−70 mV). It should be specifically noted that all recordings were made in normal ACSF (1.3 mM MgCl2). Stored data were analyzed using the Mini Analysis 6.0.3 (Synaptosoft Inc., Chapell Hill, N.C.) and Origin (MicroCal, Northampton, Mass.) software. To minimize potential sampling bias, the pups from at least three deliveries for each condition were studied. Data are expressed as mean±S.E.M.
Bumetanide (10 μM), Oxytocin (1 μM) and Isoguvacine (2 μM) were directly added to the perfusion solutions. Bumetanide pretreatment (2-2.5 mg/kg) was given to the dams in drinking water. All drugs used were purchased from Sigma. […]

[2] = test system: hippocampal CA3 pyramidal cells; assay: DFGABA in hippocampal CA3 pyramidal cells of offspring after in utero VPA / maternal bumetanide pretreatment; assay type: in vivo, rat; conditions: VPA rats (dams 600 mg/kg VPA i.p. at E12)
Description: (§1) Time-mated female Wistar rats at gestational day E7-8 were housed under standard laboratory conditions. The in utero valproic acid (VPA) rodent model of autism spectrum disorders has been previously described in detail. Briefly, the sodium salt of VPA (Sigma-Aldrich) was dissolved in physiological saline solution to a concentration of 300 mg/ml. Pregnant rats received a single intra-peritoneal dose of 600 mg/kg on gestational day 12 (E12). The control dams received a single similar volume injection of saline at the same gestational time-point. Dams were housed individually and allowed to raise their own litters. The offspring were used for experiments on embryonic day 20 (E20) and postnatal (P) days 0, 2, 4, 7, 15 and 30 (after being weaned at P23). Experiments were carried out on offspring of either sex.
(§2) Experiments were performed on fetuses and neonatal rat pups. We removed E20 rats from deeply anesthetized dams [subcutaneous injection of a mixture of xylazine (Rompun 2%; used at 0.05%) and ketamine (Imalgene 1000 used at 50 g/l)]. Hippocampal slices ([…] thick) were prepared using a Microm tissue slicer (International GmbH, Germany) as described previously (Tyzio et al. 2006 Science 314, 1788; Tyzio et al, 2008, Eur J. Neurosci. 27(10):2515-28). Slices were kept in oxygenated (95% O2/5% CO2) artificial cerebrospinal fluid (ACSF) of the following composition (in mM): NaCl 126, KCl 3.5, CaCl2 2.0, MgCl2 1.3, NaHCO3 25, NaH2PO4 1.2 and glucose 11 (pH 7.4) at room temperature (20-22° C.) at least 1 hour before use.
For recordings, slices were placed into a conventional fully submerged chamber superfused with ACSF at a rate of 2-3 ml/min at room temperature. Patch clamp recordings from visually identified CA3 pyramidal cells in cell-attached configuration were performed using EPC-10 amplifier (HEKA Elektronik Dr. Schulze GmbH, Lambrecht/Pfalz, Germany). Patch pipette solution for recordings of single GABAA channels contained (in mM): NaCl 120, KCl 5, TEA-Cl 20, 4-aminopyridine 5, CaCl2 0.1, MgCl2 10, glucose 10, Hepes-NaOH 10 buffered to pH 7.2-7.3 and GABA 2 μM. Analysis of currents through single channels and current-voltage relationships were performed using Clampfit 9.2 (Axon Instruments, Union City, Calif.). Recordings were digitized (10 kHz) online with Digidata-1200 interface card (Axon Instruments, Union City, Calif.) and analyzed offline with Axon package, MiniAnalysis (S (Synaptsoft, Decatur, Ga.), and Origin (Microcal Software, Northampton, Mass.).
(§3) Bumetanide (10 μM), Oxytocin (1 μM) and Isoguvacine (2 μM) were directly added to the perfusion solutions. Bumetanide pretreatment (2-2.5 mg/kg) was given to the dams in drinking water. All drugs used were purchased from Sigma. SSR126768A (Sanofi-Synthelabo) pretreatment (1 mg/kg) was given to the dams in drinking water.
If the polarity of GABA actions at delivery produces long terms effects in offsprings, then restoring low [Cl^−]i and inhibitory GABA at delivery might restore physiological parameters in juvenile rodents. To test this hypothesis, pregnant females were treated orally 1 day before delivery with bumetanide (2-2.5 mg/kg in drinking water) and juvenile offspring neurons recorded at P15. […] In VPA rats, GABAergic inputs are excitatory and contribute to hyperexcitability of the network. Bumetanide decreases [Cl^−]i and consequently reduces contribution of excitatory GABAergic inputs in the overall network activity.

[3] = test system: Valproate rat model of autism; assay: Isolation-induced ultrasonic vocalizations; assay type: in vivo; conditions: P4 VPA rats
Description: as §1
To induce ultrasonic vocalizations, […], and were placed into an isolation box (23×28×18 cm) located inside a sound attenuating isolation cubicle (54×57×41 cm; Coulbourn Instruments, Allentown, Pa., USA), and evaluated for ultrasonic vocalizations during a three minutes test. An ultrasound microphone (Avisoft UltraSoundGate Condenser microphone capsule CM16/CMPA, Avisoft Bioacoustics, Berlin, Germany), placed in the roof of the box, was sensitive to frequencies of 10 to 250 kHz. Vocalizations were recorded using the Avisoft Recorder software (version 4.2) with a sampling rate of 250 kHz in 16 bit format. For acoustical analysis, recordings were transferred to SASLab Pro (version 5.2; Avisoft Bioacoustics) and a fast Fourier transformation was conducted (512 FFT-length, 100% frame, Hamming window and 75% time window overlap). The accuracy of call detection was verified manually by an educated user. A Pearson correlation coefficient was computed to assess the relationship between Automatic and Manual analysis. There was 0.99 correlation between the two variables.
as §3

[4] = test system: Valproate rat model of autism; assay: In vivo EEG recordings in the CA3 area of hippocampus of head-restrained rats; conditions: VPA rats P13-15
Description: as §1
Head-fixed rat pups of age P13-P15 were prepared for extracellular recording under isoflurane anesthesia. The skin and periosteum were removed from the skull, which was then covered by glue and dental cement except for a 4-9 mm^2 window above the somatosensory cortex from one or two hemispheres for the silicon probe penetration (4.0-4.2 mm lateral to midline and 2.2-2.5 mm caudal to bregma) and for the reference electrode (1.0-1.5 mm lateral to midline and 6.0-6.5 mm caudal to bregma). The rat was positioned in the stereotaxic apparatus. A 1 mm-diameter burr hole was drilled in the skull; the dura was cut and removed. Recordings were made 1 h after recovery from anesthesia. Pups were kept restrained for <3 h and were closely monitored for signs of stress and to ensure that they spent a normal proportion of their time sleeping. The outside temperature was maintained between 35 and 36° C. The animals were kept in low-light conditions throughout all experiments. 16-site linear silicone probe (NeuroNexus Technologies) coupled to a direct-current amplifier (Molecular Devices) and dunked previously in fluorescent dye (DiI, Invitrogen) was slowly penetrated via the hole at […] depth under the angle 30° in the coronal plane. EEGs were recorded during 2 hours, using a 16-channel amplifier (A-M System, Inc.) and digitized at 5 kHz using Axoscope software (Molecular Deviced). Recordings were amplified and high-pass filtered at 0.3 Hz in Axoscope. Silicone probe location was verified postmortem via dye localization. To quantify the frequency band integral power the traces were band-pass filtered at frequency bands […]) θ-(4-7 Hz), α-(7-12 Hz), β-(12-25 Hz), Low γ-(25-60 Hz), High γ-(60-120 Hz) and Fast oscillations-(120-500 Hz)). Fast Fourier Transform (FFT) was applied with Clampfit (Molecular Devices). Integrals of FFT power spectra were taken and averaged with OriginPro (OriginLab Corporation).
as §3

[5] = test system: hippocampal slices; assay: Effects of isoguvacine on spike frequency, extracellular field potential recordings in hippocampal slices; assay type: cell-based, rat; conditions: P15
Description: as §2
Extracellular field potentials and multi-unit activity (MUA) recordings Recording were made in the hippocampal slices using tungsten wire electrodes (diameter: 50 μm, California Fine Wire, Grover Beach, Calif.) and a low-noise multichannel DAM-8A amplifiers (WPI, GB; […]; gain: ×1000). The signals were digitized using an analogue-to-digital converter (Digidata 1440A, Axon Instruments, USA). pCLAMP 10.1, Clampfit 10.1 (Axon Instruments, USA), MiniAnalysis 6.03 (Synaptosoft, Decatur, Calif.) and Origin 7.5 (Microcal Software, USA) programs were used for the acquisition and analysis of the synaptic activities. Sampling interval per signal was 100 microseconds (10 kHz).
as §3

[6] = test system: CA3 pyramidal cells; assay: Effect of isoguvacine on spontaneous spiking, cell-attached recordings; assay type: cell-based, rat; conditions: result in words
Description: as §2
For recordings, slices were placed into a conventional fully submerged chamber superfused with ACSF at a rate of 2-3 ml/min at room temperature. Patch clamp recordings from visually identified CA3 pyramidal cells in cell-attached configuration were performed using EPC-10 amplifier (HEKA Elektronik Dr. Schulze GmbH, Lambrecht/Pfalz, Germany). […] Recordings were digitized (10 kHz) online with Digidata-1200 interface card (Axon Instruments, Union City, Calif.) and analyzed offline with Axon package, MiniAnalysis (S (Synaptsoft, Decatur, Ga.), and Origin (Microcal Software, Northampton, Mass.). […]

## CCN(Cc1cccnc1)C(=O)c1ccc(Cl)c([C@]2(C)C(=O)N(Cc3ccc(OC)cc3OC)c3ccc(Cl)cc32)c1 [SSR]
[1]
  spontaneous activity of neuronal networks (sEPSCs): increases

## CCCC(CCC)C(=O)O [VPA, valproic acid]
[2]; age E20
  DFGABA (mV), mean ± S.E.: 8.5 ± 0.6 (n = 9) mV
[2]; age P0
  DFGABA (mV), mean ± S.E.: 8.2 ± 1.3 (n = 29) mV
[2]; age P2
  DFGABA (mV), mean ± S.E.: 11.7 ± 1.4 (n = 24) mV
[2]; age P7
  DFGABA (mV), mean ± S.E.: 9.7 ± 1.1 (n = 26) mV
[2]; age P15
  DFGABA (mV), mean ± S.E.: 10.2±1.0 mV and 10.2 ± 1 (n = 25 mV and 10.2 ± 1.0 (n = 25) mV
[2]; age P30
  DFGABA (mV), mean ± S.E.: 8.7 ± 0.8 (n = 25) mV
[3]
  Number of calls, isolation-induced USVs mean ± S.E.M: 1 ± 0.5 (n = 26)
  Total duration of calls, isolation-induced USVs mean ± S.E.M: 0.04 ± 0.02 (n = 26)
[4]; frequency band 0.5-4 Hz
  Integral power spectra of EEG recordings, mean ± S.E.M.: 164.05 ± 39.44
[4]; frequency band 4-7 Hz
  Integral power spectra of EEG recordings, mean ± S.E.M.: 42.01 ± 12.03
[4]; frequency band 7-12 Hz
  Integral power spectra of EEG recordings, mean ± S.E.M.: 16.52 ± 4.32
[4]; frequency band 12-25 Hz
  Integral power spectra of EEG recordings, mean ± S.E.M.: 16.56 ± 4.78
[4]; frequency band 25-60 Hz
  Integral power spectra of EEG recordings, mean ± S.E.M.: 2.41 ± 0.62
[4]; frequency band 60-120 Hz
  Integral power spectra of EEG recordings, mean ± S.E.M.: 0.74 ± 0.17
[4]; frequency band 120-500 Hz
  Integral power spectra of EEG recordings, mean ± S.E.M.: 1.83 ± 0.42

## O=C(O)C1=CCNCC1 [isoguvacine]
[5]; VPA rats
  Effects of isoguvacine on frequency of spikes in extracellular recordings (% of control), mean ± S.E.: 213.5 ± 16.3 (n = 6), P < 0.001 % of control
[5]; VPA rats, listed as Isoguvacine
  Effects of isoguvacine on frequency of spikes in extracellular recordings (% of control), mean ± S.E.: 213.5±16.3 % of control
[5]; control rats
  Effects of isoguvacine on frequency of spikes in extracellular recordings (% of control), mean ± S.E.: 38.9 ± 5.1 (n = 3), P < 0.001 % of control
[5]; control rats, listed as Isoguvacine
  Effects of isoguvacine on frequency of spikes in extracellular recordings (% of control), mean ± S.E.: 38.9±5.1 % of control
[6]; isoguvacine 2 μM, naive neurons, P0
  spike frequency in cell-attached recordings: inhibited or did not affected
[6]; isoguvacine, VPA neurons, P0 and P15
  spike frequency in cell-attached recordings: excitatory action; also recorded: increased
